Test results from patent publication US20250041284A1, “TREATMENT OF NEUROLOGICAL DISORDERS” (Praxis Precision Medicines, Inc., priority 2022, published 2025).
Entries after “also recorded” stand apart in the source; their conditions may differ.

Legend:
[1] = system: MES-induced seizures in male CD-1 mice; test: Maximal electroshock (MES) induced seizure, latency (Example 3); assay type: in vivo, mouse
Procedure: Food and water were available ad libitum.
Dosing solutions were prepared on each experiment day. […] VPA was prepared in saline (Vehicle 1). All solutions were protected from light. All compounds and vehicles were dosed at 10 ml/kg.
The MES test was carried out over two days with half of the mice from each treatment group being tested on each day. Mice were brought to the test room at least one hour before the start of the experiment. […] Mice were randomly assigned into one of the six treatment groups.
Animals were p.o. (oral) administered Compound 1 or 35% HPBCD (Vehicle 2) 30 minutes prior to the MES test or i.p. administered VPA or saline (Vehicle 1) 30 minutes prior to the MES test.
A Grass S88x (Grass Technologies of Astro-Med, Inc., West Warwick, RI) Stimulus Isolation Unit (A385, WPI Inc., USA) was set to deliver a 50 mA square-wave stimulus, with a 0.8 second duration, a pulse width of 10 msec, and a frequency of 50 Hz. A pair of custom stainless steel electrodes were soaked in 0.2% Agar, and then the subject received bilateral transauricular stimulation through ear-clip electrodes. During the stimulation, mice were manually restrained. They were then released into the observation cage for convulsion observation for 60 seconds immediately after stimulation. Each mouse was observed continuously by individuals blinded to treatment conditions and results were recorded.
Anti-seizure assessment endpoints were: (1) latency of hindlimb tonic flexion; (2) latency of hindlimb tonic extension; (3) total #hindlimb tonic flexions; (4) total #hindlimb tonic extensions; (5) latency to death; and (6) mortality rate.
Following the experiment, mice were anesthetized with CO2 and terminal plasma and brain tissue samples were collected. […] The supernatant plasma was pipetted into Eppendorf tubes.
An aliquot of 20 μL unknown sample, calibration standard, quality control, dilute quality control, single blank and double blank sample was added to a 1.5 mL tube. […]
From these fitted curves, ED50 and EC50 values were calculated.

hNaV1.6 = molecular target: T1, hNaV1.6 (Homo sapiens, UniProt Q9UQD0); test: Peak INa voltage-dependent block (VDB), automated patch clamp in HEK cells; assay type: cell-based
T1 construct: expressed in transfected cells; host or cells: HEK cells

[2] = system: MES-induced tonic hindlimb extension in male CD-1 mice; test: MES acute seizure model, protection from tonic hindlimb extension (Example 9); assay type: in vivo, mouse
Procedure: Male CD-1 mice (Vital River, Beijing, China) approximately 6 weeks old were obtained for the study. Body weights were between 20.5 grams and 38.5 grams at the time the experiments were carried out. […] Food and water were available ad libitum.
(§1) Treatment was conducted using Compound 1 and 35% 2-hydroxypropyl-β-cyclodextrin (35% HPBCD, used as a negative control). Compound 1 stock solution was prepared fresh each experiment day in 35% HPBCD and protected from light. The stock solution was diluted with vehicle for lower doses.
Mice were brought to the test room at least one hour before the start of the experiment. Mice were administered valproate (VPA; 400 mg/kg, intraperitoneally); or vehicle (35% HPBCD, 10 mL/kg, intraperitoneally); or Compound 1 (0.3 mg/kg, 1 mg/kg, 3 mg/kg or 10 mg/kg, orally) 30 minutes prior to the MES test.
The electroshock apparatus was set to deliver a 50 mA square-wave stimulus, with a 0.8 second duration, a pulse width of 10 milliseconds, and a frequency of 50 Hz. A pair of custom stainless-steel electrodes were soaked in 0.2% agar, and then the subject received bilateral transauricular stimulation through ear-clip electrodes. During the stimulation, mice were manually restrained then released immediately into an observation cage where they were monitored continuously for 60 seconds by an observer blinded to treatment group.
Mice were anesthetized with CO2 and terminal plasma and brain tissue samples were collected. […] The supernatant plasma was pipetted into Eppendorf tubes.
All statistical analyses were conducted using GraphPad Prism 9.3. Means were combined and standard error was calculated using the Satterthwaite Approximation to combine standard deviations. […] ED50 and EC50 values were calculated from these fit curves.

[3] = system: locomotor activity of male CD-1 mice; test: Spontaneous locomotor activity (sLMA) (Example 8); assay type: in vivo, mouse
Procedure: (§2) Male CD-1 mice (Vital River, Beijing, China) approximately 6 weeks old were used for the study. Body weights were between 25 g and 35 g at the time of experiment.
as §1
(§3) The spontaneous locomotor activity (sLMA) test for each study was carried out over three days, with mice from each treatment group tested each day. The treatment groups included mice dosed with vehicle (35% HPBCD) and with Compound 1 at the dose of 3 mg/kg, 5.6 mg/kg, 10 mg/kg and 20 mg/kg. Mice were randomly assigned into one of the treatment groups.
(§4) A single dose of Compound 1 (3 mg/kg, 5.6 mg/kg, 10 mg/kg and 20 mg/kg) or vehicle (35% HPBCD) was administered to mice via oral gavage 30 minutes prior to testing. Immediately prior to conducting the sLMA test, a brief neurological assessment was performed. Each animal was visually assessed for sedation and ataxia.
(§5) Activity was recorded by overhead cameras and was analyzed offline. Video tracking analysis software was used to determine total distance travelled in millimeters. Distance travelled was also calculated in 5-minute bins.
(§6) All statistical analyses were conducted using GraphPad Prism 9.3. Means were combined and standard error was calculated using the Satterthwaite Approximation to combined standard deviations. […] TD50 and TC50 values were calculated from these fit curves.

[4] = Spontaneous locomotor activity (sLMA) (Example 8); assay type: in vivo, mouse; settings: male, CD-1, mouse, in vivo, po, 30 min before test, distance travelled
Procedure: as §2, §1, §3, §4, §5, §6

T1 sequence (Q9UQD0 whole entry): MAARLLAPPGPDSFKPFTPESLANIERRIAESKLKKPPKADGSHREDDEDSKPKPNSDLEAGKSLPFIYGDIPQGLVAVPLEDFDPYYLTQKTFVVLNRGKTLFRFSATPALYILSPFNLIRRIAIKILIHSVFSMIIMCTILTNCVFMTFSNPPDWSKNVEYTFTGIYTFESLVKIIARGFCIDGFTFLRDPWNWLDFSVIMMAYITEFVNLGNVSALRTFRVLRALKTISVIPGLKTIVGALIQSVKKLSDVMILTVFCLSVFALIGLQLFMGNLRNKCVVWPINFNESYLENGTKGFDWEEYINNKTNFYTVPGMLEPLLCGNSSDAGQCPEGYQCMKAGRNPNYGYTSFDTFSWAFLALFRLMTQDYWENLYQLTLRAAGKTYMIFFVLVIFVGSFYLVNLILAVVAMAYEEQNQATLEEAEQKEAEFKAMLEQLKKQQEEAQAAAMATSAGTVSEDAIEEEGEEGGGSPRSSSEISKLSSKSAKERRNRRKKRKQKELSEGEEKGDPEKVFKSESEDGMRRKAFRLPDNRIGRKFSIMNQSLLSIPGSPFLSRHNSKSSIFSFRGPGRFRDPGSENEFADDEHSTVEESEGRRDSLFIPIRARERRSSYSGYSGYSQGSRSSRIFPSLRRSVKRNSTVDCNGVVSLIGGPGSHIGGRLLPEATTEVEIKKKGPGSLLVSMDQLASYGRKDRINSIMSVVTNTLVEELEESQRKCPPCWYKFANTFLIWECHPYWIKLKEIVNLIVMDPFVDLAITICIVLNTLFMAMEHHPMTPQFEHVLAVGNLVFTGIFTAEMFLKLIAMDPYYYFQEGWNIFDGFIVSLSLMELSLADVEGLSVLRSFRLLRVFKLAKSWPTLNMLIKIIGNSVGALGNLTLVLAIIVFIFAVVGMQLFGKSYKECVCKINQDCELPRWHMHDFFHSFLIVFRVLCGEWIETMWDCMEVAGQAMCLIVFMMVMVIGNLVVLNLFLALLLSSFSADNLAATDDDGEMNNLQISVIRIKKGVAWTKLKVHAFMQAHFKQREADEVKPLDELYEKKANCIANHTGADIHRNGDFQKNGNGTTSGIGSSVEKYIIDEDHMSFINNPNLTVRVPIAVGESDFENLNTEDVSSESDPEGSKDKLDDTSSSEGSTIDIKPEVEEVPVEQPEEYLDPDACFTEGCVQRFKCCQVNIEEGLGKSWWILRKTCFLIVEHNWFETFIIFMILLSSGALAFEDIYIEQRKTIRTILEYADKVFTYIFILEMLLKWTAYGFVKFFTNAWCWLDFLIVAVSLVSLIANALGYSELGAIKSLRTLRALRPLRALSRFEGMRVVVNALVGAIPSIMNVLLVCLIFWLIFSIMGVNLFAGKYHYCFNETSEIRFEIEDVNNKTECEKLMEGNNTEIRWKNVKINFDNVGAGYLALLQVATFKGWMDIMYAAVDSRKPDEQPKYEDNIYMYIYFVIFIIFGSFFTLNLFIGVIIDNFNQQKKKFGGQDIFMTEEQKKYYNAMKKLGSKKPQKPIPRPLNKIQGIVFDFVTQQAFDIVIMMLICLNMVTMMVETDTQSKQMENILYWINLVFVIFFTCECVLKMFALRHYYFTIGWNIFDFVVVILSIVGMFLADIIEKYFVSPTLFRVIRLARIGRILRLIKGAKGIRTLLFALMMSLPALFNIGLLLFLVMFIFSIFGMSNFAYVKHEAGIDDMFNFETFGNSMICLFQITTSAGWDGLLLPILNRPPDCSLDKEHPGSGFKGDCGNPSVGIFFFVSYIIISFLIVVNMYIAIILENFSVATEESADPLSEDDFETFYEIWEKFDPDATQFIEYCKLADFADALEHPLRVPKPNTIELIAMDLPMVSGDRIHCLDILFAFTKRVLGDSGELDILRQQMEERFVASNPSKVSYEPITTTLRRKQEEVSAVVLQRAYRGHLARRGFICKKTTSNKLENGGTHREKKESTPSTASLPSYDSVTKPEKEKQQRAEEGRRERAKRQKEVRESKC

In the case of `CCOC(F)(F)c1nnc2ccc(-c3cnc(OCC(F)(F)F)c(F)c3)cn12` [Compound 1], the “latency to seizures following bilateral transauricular stimulation” value ([1]; 1 mg/kg p.o.) is reported as “significantly increased latency to seizures”, the “block of evoked seizures (MES)” value ([1]; 10 mg/kg) is reported as “completely blocked evoked seizures” and the ED50 ([1]; Mus musculus, po, 30 min before MES, latency to seizures) is reported as 0.67 mg/kg. For the same molecule, the “Ratio to Pers. INa (Peak INa VDB)” value (hNaV1.6; VDB IC50 / persistent INa IC50) was 0.56, the “Peak INa VDB Hill slope” value (hNaV1.6; voltage-dependent block) was “(1.0)” and the IC50 (hNaV1.6; voltage-dependent block, Vm inactivation V1/2) was 0.072 µM. The “sedation or ataxia before MES test” value ([2]; 10 mg/kg orally) was “some mice showed sedation or ataxia; also recorded: six of thirty mice showed mild to moderate sedation”, the “sedation or ataxia before MES test” value ([2]; 0.3 to 3 mg/kg orally) was “No sedation or ataxia was observed; also recorded: No sedation was observed” and the ED50 ([2]; Mus musculus, administered dose) was 0.42 mg/kg. The sedation or ataxia ([3]; 3 mg/kg and 5.6 mg/kg p.o.) was “No sedation or ataxia was observed”, the “mice with sedation and/or ataxia” value ([3]; 10 mg/kg p.o.) was “five” and the “mice with sedation and/or ataxia” value ([3]; 20 mg/kg p.o.) was “eight”. For the same molecule, the “sLMA brain TC50” value ([3]; brain concentration) was 1914 ng/g, the “sLMA plasma TC50” value ([3]; plasma concentration) was 1.256 µg/mL and the TD50 [4] was 10.4 mg/kg.
